Molecular target: Wee1-like protein kinase (Homo sapiens, UniProt P30291)
Assay: Enzymatic Activity of Wee1: In the present disclosure, Wee1 enzyme catalysis assay was carried out using the ATP-Glo Max kinase luminescence detection kit (Promega). Kinase activity was assessed by quantitative detection of the amount of ATP retained in the solution following the kinase reaction. The luminescent signal in the assay is proportional to the amount of ATP and inversely proportional to the kinase activity. The concentration of the compound in the assay ranged from 0.5 nM to 30 μM. The compound was dissolved in 10% DMSO, and 5 μL of the solution was added to 50 μL of the reaction, and the concentration of DMSO in the final reaction was 1%. The reaction was carried out at 30° C. for 50 minutes. 40 mM trishydroxymetyl aminomethane, pH 7.4, 10 mM MgCl2, 0.1 mg/ml BSA, 2 mM DTT, 0.1 mg/ml Poly (Lys, Tyr) substrate, 10 μM ATP and Wee1 were contained in the reaction mixture. After the enzymatic reaction, 50 μL of ATP-Glo Max kinase luminescence detection assay solution (Promega) was added and incubated for 15 minutes at room temperature. The luminescent signal was measured using a microplate reader. In some assays, a known Wee1 inhibitor was added as a positive control. Luminance data was analyzed using Graphpad software.

Chain of Wee1-like protein kinase (P30291 whole entry): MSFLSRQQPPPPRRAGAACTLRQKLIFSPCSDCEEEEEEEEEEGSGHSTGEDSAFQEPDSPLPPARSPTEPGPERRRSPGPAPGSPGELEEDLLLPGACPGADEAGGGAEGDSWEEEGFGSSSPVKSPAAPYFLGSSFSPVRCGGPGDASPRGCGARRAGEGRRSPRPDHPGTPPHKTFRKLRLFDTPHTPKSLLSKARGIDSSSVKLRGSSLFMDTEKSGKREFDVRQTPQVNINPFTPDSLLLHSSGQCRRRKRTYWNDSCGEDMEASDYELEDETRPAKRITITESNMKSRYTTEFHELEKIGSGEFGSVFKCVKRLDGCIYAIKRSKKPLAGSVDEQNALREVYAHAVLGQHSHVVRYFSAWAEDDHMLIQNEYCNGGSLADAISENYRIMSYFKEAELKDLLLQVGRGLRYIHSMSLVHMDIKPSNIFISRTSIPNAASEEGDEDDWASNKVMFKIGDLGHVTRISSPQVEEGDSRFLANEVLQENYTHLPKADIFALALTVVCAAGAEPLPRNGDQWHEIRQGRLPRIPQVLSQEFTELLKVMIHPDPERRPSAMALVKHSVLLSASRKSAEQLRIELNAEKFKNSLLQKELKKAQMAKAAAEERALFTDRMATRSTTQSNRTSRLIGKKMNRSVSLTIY

| IC50 | Compound |
| --- | --- |
| 0.0102 µM | CC(C)N1Cc2ccc(Nc3ncc4c(=O)n5n(c4n3)-c3ccc4c(n3)N(CCC/C=C\C5)C(=O)CO4)cc2C2(CC2)C1 |
| 0.0104 µM | CC(C)N1Cc2cc(Nc3ncc4c(=O)n5n(c4n3)-c3ccc4c(n3)N(CCC/C=C\C5)C(=O)CO4)ccc2C2(CC2)C1 |

— ChEMBL document CHEMBL5728983, “Macrocyclic derivative of pyrazol[3,4-d]pyrimidin-3-one, pharmaceutical composition and use thereof” (2022)
